Laboratory results taken from patent publication US5837862A, “Sialyl Lewis X mimetics incorporating mannopeptides” (The Scripps Research Institute, priority 1996, dated 1998).

What was measured:
lung injury in rats = details: cited from earlier work
[1] = in vivo; cited from earlier work
glycosidase = details: because of glycosidase reductions; cited from earlier work
E-selectin = molecular target: T1, E-selectin (Homo sapiens, UniProt P16581); experiment: E-selectin inhibition assay (Weitz-Schmidt et al.); type: binding
T1 sequence (P16581 22-610): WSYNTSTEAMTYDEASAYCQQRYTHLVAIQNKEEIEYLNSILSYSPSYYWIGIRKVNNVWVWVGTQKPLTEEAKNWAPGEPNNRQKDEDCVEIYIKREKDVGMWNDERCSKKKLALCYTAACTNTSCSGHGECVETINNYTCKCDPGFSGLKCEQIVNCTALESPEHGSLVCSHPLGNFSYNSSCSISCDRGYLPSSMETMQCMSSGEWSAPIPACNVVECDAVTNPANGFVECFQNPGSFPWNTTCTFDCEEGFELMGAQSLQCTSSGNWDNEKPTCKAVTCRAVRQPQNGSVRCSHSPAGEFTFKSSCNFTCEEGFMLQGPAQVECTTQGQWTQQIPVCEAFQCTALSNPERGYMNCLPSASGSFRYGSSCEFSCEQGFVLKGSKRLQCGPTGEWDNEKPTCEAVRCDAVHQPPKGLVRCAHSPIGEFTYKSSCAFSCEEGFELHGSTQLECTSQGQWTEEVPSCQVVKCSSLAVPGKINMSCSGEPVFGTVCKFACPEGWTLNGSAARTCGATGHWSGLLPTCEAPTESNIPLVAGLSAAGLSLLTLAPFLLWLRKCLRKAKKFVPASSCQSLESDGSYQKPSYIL

P-selectin = molecular target: T2, P-selectin (Homo sapiens, UniProt P16109); experiment: P-selectin inhibition assay; type: binding; details: at 3 mM
T2 sequence (P16109 42-830): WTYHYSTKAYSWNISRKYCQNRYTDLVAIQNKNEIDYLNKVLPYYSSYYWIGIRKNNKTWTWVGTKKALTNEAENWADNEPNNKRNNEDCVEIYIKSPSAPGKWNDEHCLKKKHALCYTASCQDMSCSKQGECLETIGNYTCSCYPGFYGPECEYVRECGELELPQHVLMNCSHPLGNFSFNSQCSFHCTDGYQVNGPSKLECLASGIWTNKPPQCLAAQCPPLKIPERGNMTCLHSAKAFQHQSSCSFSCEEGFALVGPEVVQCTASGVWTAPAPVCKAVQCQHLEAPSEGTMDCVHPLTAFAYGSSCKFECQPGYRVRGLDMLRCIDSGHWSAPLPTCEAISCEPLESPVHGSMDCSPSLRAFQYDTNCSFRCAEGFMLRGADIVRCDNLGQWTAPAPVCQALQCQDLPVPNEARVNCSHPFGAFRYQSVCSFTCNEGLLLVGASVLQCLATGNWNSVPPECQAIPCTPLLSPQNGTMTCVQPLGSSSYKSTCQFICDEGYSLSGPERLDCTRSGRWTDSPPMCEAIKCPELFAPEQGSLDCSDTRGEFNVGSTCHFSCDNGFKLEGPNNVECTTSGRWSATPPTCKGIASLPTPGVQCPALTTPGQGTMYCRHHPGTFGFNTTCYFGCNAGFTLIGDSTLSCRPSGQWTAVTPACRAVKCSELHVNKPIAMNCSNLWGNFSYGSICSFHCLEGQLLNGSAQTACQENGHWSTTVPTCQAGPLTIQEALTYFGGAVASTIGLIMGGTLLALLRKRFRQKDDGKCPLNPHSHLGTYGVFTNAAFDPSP

L-selectin = molecular target: T3, L-selectin (Homo sapiens, UniProt P14151); experiment: L-selectin inhibition assay; type: binding; details: at 3 mM
T3 sequence (P14151 39-372): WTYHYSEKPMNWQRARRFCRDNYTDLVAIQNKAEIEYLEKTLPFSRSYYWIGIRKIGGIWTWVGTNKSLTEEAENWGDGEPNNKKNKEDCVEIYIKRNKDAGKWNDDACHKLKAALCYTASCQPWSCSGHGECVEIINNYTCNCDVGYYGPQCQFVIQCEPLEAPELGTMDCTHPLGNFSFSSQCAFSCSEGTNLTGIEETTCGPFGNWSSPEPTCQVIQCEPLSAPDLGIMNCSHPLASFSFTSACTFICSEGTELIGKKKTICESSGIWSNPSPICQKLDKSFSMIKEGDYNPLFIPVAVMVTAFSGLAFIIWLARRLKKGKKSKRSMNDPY

Compound	effective intravenous concentration (lung injury in rats; rat, intravenous infusion of up to 200 μg, calculated)	effect on lung injury (lung injury in rats; rat, intravenous infusion of up to 200 μg, cobra venom)	IC50 (lung injury in rats; rats, read-out: IC50 value in vivo for protecting against lung injury) [nM]	oral activity [1]	stability in the blood stream (glycosidase)	IC50 (E-selectin) [µM]	activity relative to SLex (E-selectin; versus SLex) [fold]	inhibition of P-selectin (P-selectin)	inhibition of L-selectin (L-selectin)
NeuAcα2→3Galβ1→4(Fucα1→3)GlcNAc [SLex]	less than 1 μM	dramatically reduced lung injury	~1000	orally inactive	unstable in the blood stream	–	–	–	–
O=C(O)CNC(=O)[C@@H](O)[C@H](O)C[C@H]1O[C@H](CO)[C@@H](O)[C@H](O)[C@@H]1O [Mimetic 5, (2S,3R)-N-Carboxylmethyl-2,3-dihydroxy-4-(α-D -mannopyranosyl)-butyramide]	–	–	–	–	–	160	3	does not inhibit	does not inhibit
